Results as given in patent US8802416B2, “Thermostable organic solvent tolerant protease from gram-positive bacteria” (Universiti Putra Malaysia, priority 2009, dated 2014).
Square brackets hold non-standard residues; d marks the D form. Peptide text beside a SMILES is read from it. * marks the point of attachment. Sta = CC(C)C[C@H](N)[C@@H](O)CC(=O)O; Isovaleryl = CC(C)CC(=O)*

How the values were obtained:
Rand protease [1] = test: Effect of inhibitors on protease activity; assay type: biochemical, Bacillus subtilis isolate Rand; conditions: 5 mM inhibitor, 30 min at 37° C., relative to control
Experimental: Purified Rand protease was incubated with 5 mM of different inhibitors at 37° C. for 30 min.
All the inhibitors were used at 5 mM final concentration.

Rand protease [2] = test: Effect of metal ions on protease activity; assay type: biochemical, Bacillus subtilis isolate Rand; conditions: 5 mM metal ion, 37° C., 30 min; control no ions
Experimental: Purified Rand protease was treated with 5 mM of various metal ions at 37° C. for […].
The effect of metal ions on protease activity was determined by incubating the protease with different metal ions at 5 mM final concentration. The metal ions used were K^+, Na^+, Mg^2+, Ca^2+, Mg^2+, Fe^2+, Co^2+, Cu^2+, Zn^2+ and […]. The samples were incubated at 37° C. for 30 min. […] The control contained no ions.

[3] = system: thermophilic Bacillus strain HS08 protease; conditions: cited from earlier work
[4] = system: protease activity of B. megaterium; conditions: presence of Zn2+; cited from earlier work
[5] = system: Bacillus sp. TKU004 protease; conditions: zinc ions; cited from earlier work
[6] = cited from earlier work
Rand protease [7] = test: Effect of organic solvents on purified Rand protease activity; assay type: biochemical, Bacillus subtilis isolate Rand; conditions: 25% (v/v) solvent, 37° C., 150 rpm, 30 min, no solvent = 100%
Experimental: . Three ml of purified Rand protease were incubated with 1 ml of different organic solvents at 37° C. with shaking at 150 rpm for 30 min. The activity of the enzyme without any solvent (none) was taken as 100%.
The effects of organic solvents with various log P on protease activity were determined. […] . The control was done in the absent of organic solvent and assay under the same experimental conditions. The protease was incubated in the presence of 25% (v/v) of organic solvents for 30 min. The incubation was performed at 37° C. in water bath shaker with 150 rpm. The samples were removed and immediately vortex prior to assay the protease activity.

Rand protease [8] = test: Effect of organic solvents on stability of crude Rand protease (cell-free supernatant); assay type: biochemical, Bacillus subtilis isolate Rand; conditions: 25% (v/v) solvent, 55° C., 150 rpm, 30 min, control distilled water
Experimental: 1. […] Three ml aliquots of a cell-free supernatant culture were incubated with 1 ml of different organic solvents at 55° C. with shaking at 150 rpm for 30 min.
Each sample was run in triplicate.
Isolate Rand was cultured aerobically at 50° C. for 24 h in the absence of organic solvents. The culture medium was then centrifuged at 12,000×g and 4° C. for 10 min. The supernatant was filtered with a cellulose acetate membrane filter (pore size 0.22 μm). One mL organic solvent was added to 3.0 mL of the cell-free supernatant and the whole mixture was incubated in shaker 150 rpm at 55° C. for 30 min. The samples were removed and immediately vortex prior to assay at zero time and after incubation period. For control the solvent was replaced by distilled water.

SMILES: OCCS [2-mercaptoethanol, 2-Mercaptoethanol]
- reduction (inhibition) of protease activity (Rand protease [1]): About 90%

SMILES: [Mg+2] [Mg^2+]
- protease activity in the presence of metal ion (Rand protease [2]): inhibitory effects

SMILES: [Cu+2] [Cu^2+]
- protease activity in the presence of metal ion (Rand protease [2]): inhibitory effects

SMILES: [Ca+2] [Ca^2+]
- protease activity in the presence of metal ion (Rand protease [2]): around 89%
- influence on proteolytic activity ([3]; Ca2+ ions): did not show any influence

SMILES: [Zn+2] [Zn^2+]
- relative activity ([3]; 2 mM Zn2+): 109%
- relative activities [4]: 28%
- activity of the apo-enzyme restored, of the original level [5]: 75%

SMILES: [K+] [K^+]
- protease activity in the presence of metal ion (Rand protease [2]): ~112%

SMILES: CCCCCCCCCCCC [n-dodecane]
- log P [6]: 6.0

SMILES: CC(C)CC(=O)N[C@H](C(=O)N[C@H](C(=O)N[C@@H](CC(C)C)[C@@H](O)CC(=O)N[C@@H](C)C(=O)N[C@@H](CC(C)C)[C@@H](O)CC(=O)O)C(C)C)C(C)C [Pepstatin A, pepstatin A] (Isovaleryl-VV[Sta]A[Sta]-OH)
- protease activity retained (Rand protease [1]): ~63%

SMILES: CCCCCCCCCCCCCC [n-tetradecane]
- log P [6]: 7.6

SMILES: ClC(Cl)Cl [chloroform]
- relative activity remaining in organic solvent (Rand protease [7]): 18%

SMILES: [Fe+2] [Fe^2+]
- protease activity in the presence of metal ion (Rand protease [2]): inhibitory effects

SMILES: Cc1ccccc1 [toluene]
- remaining activity of Rand protease in the presence of organic solvent (Rand protease [8]): 130%
- remaining activity of Rand protease in the presence of organic solvent (Rand protease [8]; listed as toluen): enhanced

SMILES: CC(C)C[C@H](NC(=O)[C@@H](O)[C@H](N)Cc1ccccc1)C(=O)O [Bestatin, bestatin]
- protease activity retained (Rand protease [1]): about 95%

SMILES: O[C@@H](CS)[C@@H](O)CS (racemic) [DTT, 1,4-Dithio-DL-threitol]
- reduction (inhibition) of protease activity (Rand protease [1]): 30%

SMILES: c1ccncc1 [pyridine]
- remaining activity of Rand protease in the presence of organic solvent (Rand protease [8]): no activity was observed

SMILES: [Co+2] [Co^2+]
- protease activity in the presence of metal ion (Rand protease [2]): inhibitory effects

SMILES: [Ni+2] [Ni^2+]
- protease activity in the presence of metal ion (Rand protease [2]): inhibitory effects

SMILES: O=S(=O)(F)Cc1ccccc1 [PMSF, phenylmethanesulfonyl fluoride]
- reduction (inhibition) of protease activity (Rand protease [1]): completely inhibited
